Reference: patent US20240148757A1, “USE OF DIHYDROOROTATE DEHYDROGENASE (DHODH) INHIBITORS TO TARGET FERROPTOSIS IN CANCER THERAPY” (BOARD OF REGENTS, THE UNIVERSITY OF TEXAS SYSTEM, priority 2021, published 2024)

How the values were obtained:
GPX4^high HT-1080 cells = assay: Cell viability / cell death (ferroptosis) in HT-1080 cells; assay type: cell-based, human; conditions: 24 hours
Method in brief: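 HT-1080 cells were exposed to GPX4 or DHODH inhibitors for 4 h, and viability was then read by CCK-8 absorbance at 450 nm after 1 h at 37 °C. Separately, cell death was scored as the propidium iodide-positive fraction (5 μg/ml) by flow cytometry, ≥10,000 cells per well.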

[1] = tested on: GPX4^low NCI-H226 xenografts; assay: NCI-H226 xenograft model; assay type: in vivo, athymic nude mice; conditions: liproxstatin-1 10 mg/kg intraperitoneally daily
Experimental: All the xenograft experiments were performed in accordance with a protocol approved by the Institutional Animal Care and Use Committee and Institutional Review Board at The University of Texas MD Anderson Cancer Center. The study is compliant with all relevant ethical regulations regarding animal research. Female 4- to 6-week-old athymic nude mice (Foxn1^nu/Foxn1^nu) were purchased from the Experimental Radiation Oncology Breeding Core Facility at MD Anderson Cancer Center and housed in the Animal Care Facility at the Department of Veterinary Medicine and Surgery at MD Anderson. Cancer cell lines were suspended and counted in cold phosphate-buffered saline (PBS), and 5×10^6 HT-1080 or 1×10^7 NCI-H226 cells were injected into mice subcutaneously. When the tumor reached 50-100 mm^3, the mice were assigned randomly into different treatment groups. Brequinar or sulfasalazine was dissolved in dimethyl sulfoxide (DMSO) and diluted in PBS. Brequinar was intraperitoneally injected into mice at a dose of 30 mg/kg every three days. Sulfasalazine was intraperitoneally injected daily at a dose of 100 mg/kg. Liproxstatin-1 diluted in PBS was intraperitoneally injected daily at a dose of 10 mg/kg. […] The tumor volume was measured every 3 days until the endpoint and calculated according to the equation volume=length×width^2×½.

[2] = tested on: GPX4^low patient-derived xenografts (PDXs); assay: GPX4^low patient-derived xenograft model; assay type: in vivo, NSG mice; conditions: liproxstatin-1 10 mg/kg intraperitoneally daily
Excerpt: PDXs were generated in accordance with protocols approved by the Institutional Review Board at The University of Texas MD Anderson Cancer Center. Informed consent was obtained from the patients and the study is compliant with all relevant ethical regulations regarding research involving human participants. All the NOD scid gamma (NSG) mice were purchased from the Experimental Radiation Oncology Breeding Core Facility at MD Anderson Cancer Center and housed in the Animal Care Facility at the Department of Veterinary Medicine and Surgery at MD Anderson Cancer Center. PDX model used in this study was originally obtained from lung cancer PDX platform at MD Anderson Cancer Center. PDX experiments were performed as previously described (Liu, X., et al., Nat Cell Biol 22, 476-486 (2020)). Briefly, PDX tumors in cold DMEM media were minced into fragments 1-2 mm^3 in volume. Then each PDX tumor fragment was subcutaneously inoculated into the dorsal flank of NSG mice. When the tumors reached 50-100 mm 3 in volume, the mice were assigned randomly into different treatment groups for the treatment of brequinar, sulfasalazine, and/or liproxstatin-1 as described under cell line-derived xenograft model. The tumor volume was measured every 3 days until the endpoint and calculated according to the equation volume=length×width^2×½.

[3] = tested on: GPX4 knockdown HT-1080 cells with DHODH deletion; assay: Lipid peroxidation and ferroptosis in DHODH KO, GPX4 knockdown HT-1080 cells; assay type: cell-based, human
Experimental: Knockout of DHODH, ACSL4 and COQ2 in human cell lines was performed using single guide RNAs (sgRNAs) and doxycycline (DOX)-inducible CRISPR-Cas9 expression system as described in our recent publication (Lee, H., et al., Nature cell biology 22, 225-234 (2020)). sgRNAs were cloned into the lentiviral lentiGuide vector. LentiGuide clones were transfected into HEK293T cells with psPAX2 packaging plasmid and pMD2.G expressing plasmid. Cells were infected with lentivirus with 0.8 μg/ml polybrene, selected with puromycin (1 μg/ml, InvivoGen), blasticidin (2 μg/ml, InvivoGen) or hygromycin B (2 μg/ml, InvivoGen) for 3 days and then single cells were sorted into 96-well plates. […]
Cells were seeded on 12-well plates and incubated overnight. […] Lipid peroxidation was assessed using the flow cytometer BD Accuri C6 with a 488 nm laser on an FL1 detector. A minimum of 10,000 single cells were analyzed per well.
Cell death was measured by propidium iodide (Roche) staining using a flow cytometer, as previously described (Dai, F., et al., Proc Natl Acad Sci USA 114, 3192-3197 (2017); Zhang, Y., et al., Cancer Res 80, 2243-2256 (2020)). […] A minimum of 10,000 single cells were analyzed per well and all experiments were carried out at least in triplicate.

## Clc1cccc(CN=C2Nc3ccccc3NC23CCNCC3)c1 [liproxstatin-1]
GPX4^high HT-1080 cells; BQR, pretreatment Lip-1 or ZVF 10 μM
  rescue of DHODH inhibition-induced cell death: the opposite was observed
GPX4^high HT-1080 cells; DHODH WT, pretreatment 10 μM
  protection against GPX4 inhibition (RSL3 or ML162)-induced ferroptosis: rescued
[1]
  restoration of brequinar-suppressed tumor growth: could be restored
[2]
  restoration of brequinar-suppressed tumor growth: could be restored
[3]
  rescue of lipid peroxidation and ferroptosis: could be rescued
